Literature values, collected in US20020110580A1, “Nutritional composition for improving the efficacy of a lipase inhibitor” (priority 2000, published 2002).

Tests used:
[1] = individuals receiving CCK

Row | Molecule | gastric emptying of both the solid and fat phases of a mixed meal | CCK release (mixed meal) | reduction in caloric intake [1]
1 | CCCCCCCCCCC[C@@H](C[C@@H]1OC(=O)[C@H]1CCCCCC)OC(=O)[C@H](CC(C)C)NC=O [Orlistat, tetrahydrolipstatin] | accelerated | decreased | –
2 | Cholecystokinin (peptide, UniProt P06307 21-115, looked up, Cholecystokinin) Cholecystokinin: QPVPPADPAGSGLQRAEEAPRRQLRVSQRTDGESRAHLGALLARYIQQARKAPSGRMSIVKNLQNLDPSHRISDRDYMGWMDFGRRSAEEYEYPS | – | – | 16-22%
